The numbers were not newly measured in patent publication US20240315993A1, “ANTIPARASITIC COMPOUNDS” (Intervet Inc., priority 2021, published 2024), which cites them from elsewhere.

Data set [1] concerns Cabbage Looper (Trichoplusia ni). The conditions noted are these: Cabbage Looper second instar larvae, 128-well diet tray, 50 μg/cm^2, five to seven days, average of eight wells; cited from earlier work.
Data set [2] has as its system Beet Armyworm (Spodoptera exigua). The settings on record: Beet Armyworm second instar larvae, 128-well diet tray, 50 μg/cm^2, five to seven days, average of eight wells; cited from earlier work.
The test system of data set [3] is Yellow Fever Mosquito (Aedes aegypti). The conditions noted are these: Aedes aegypti larvae about 1 day old, 96-well plate, scored after 3 days; cited from earlier work.

Each structure is given as a SMILES string.

Turning to `Cc1ccc(-c2csc(NC(=O)c3cc(NC(=O)[C@H]4[C@H](c5cc(Cl)cc(Cl)c5)C4(Cl)Cl)ccc3Cl)n2)cc1` [c24], the “Test B: Bioassay on CL, percent mortality rating” value (“Test B … percent mortality rating” below) in data set [1] was “A (50-100)”. Also, in data set [2], the “Test A: Bioassay on BAW, percent mortality rating” value is reported as “A (50-100)”. The “Test C: Bioassay on Yellow Fever Mosquito, mortality rating” value (shortened to “Test C: Bioassay”) in data set [3] is listed as “D (No activity noticed in this bioassay)”.
On to `O=C(Nc1c[nH]c(=O)[nH]c1=O)c1cc(NC(=O)[C@H]2[C@H](c3cc(Cl)cc(Cl)c3)C2(Cl)Cl)ccc1Cl` [c25], for which the “Test B … percent mortality rating” value in data set [1] is reported as “A (50-100)”. In data set [2], the “Test A: Bioassay on BAW, percent mortality rating” value is “A (50-100)”. Besides, the “Test C: Bioassay” value in data set [3] is recorded as “B (More than 0 - Less than 80)”.
As to `O=C(Nc1nc2ccccc2o1)c1cc(NC(=O)C2C(c3cc(Cl)cc(Cl)c3)C2(Cl)Cl)ccc1Cl` (stereo not drawn) [c26], the “Test B … percent mortality rating” value in data set [1] is given as “A (50-100)”. The “Test A: Bioassay on BAW, percent mortality rating” value in data set [2] is reported as “A (50-100)”. The “Test C: Bioassay” value in data set [3] is “A (80-100)”.
Take `O=C(Nc1ccc2ncoc2c1)c1cc(NC(=O)C2C(c3cc(Cl)cc(Cl)c3)C2(Cl)Cl)ccc1Cl` (stereo not drawn) [c27]: the “Test B … percent mortality rating” value in data set [1] is “A (50-100)”. The “Test A: Bioassay on BAW, percent mortality rating” value in data set [2] is on record as “A (50-100)”. Also, the “Test C: Bioassay” value in data set [3] is “A (80-100)”.
For the compound `O=C(Nc1ccc2sccc2c1)c1cc(NC(=O)C2C(c3cc(Cl)cc(Cl)c3)C2(Cl)Cl)ccc1Cl` (stereo not drawn) [c28], in data set [1], the “Test B … percent mortality rating” value is recorded as “A (50-100)”. Further, the “Test A: Bioassay on BAW, percent mortality rating” value in data set [2] is “A (50-100)”. In addition, the “Test C: Bioassay” value in data set [3] is “A (80-100)”.
Regarding `Nc1cccc(NC(=O)c2cc(NC(=O)C3C(c4cc(Cl)cc(Cl)c4)C3(Cl)Cl)ccc2Cl)c1` (stereo not drawn) [c29], in data set [1], the “Test B … percent mortality rating” value is “A (50-100)”. For the same compound, in data set [2], the “Test A: Bioassay on BAW, percent mortality rating” value is recorded as “A (50-100)”. Also, the “Test C: Bioassay” value in data set [3] was “A (80-100)”.
Take `CNc1cccc(NC(=O)c2cc(NC(=O)C3C(c4cc(Cl)cc(Cl)c4)C3(Cl)Cl)ccc2Cl)c1` (stereo not drawn) [c30]: in data set [1], the “Test B … percent mortality rating” value was “A (50-100)”. In addition, in data set [2], the “Test A: Bioassay on BAW, percent mortality rating” value is given as “A (50-100)”. The “Test C: Bioassay” value in data set [3] is “A (80-100)”.
Regarding `Cc1ccc(NC(=O)c2cc(NC(=O)C3C(c4cc(Cl)cc(Cl)c4)C3(Cl)Cl)ccc2Cl)cc1N` (stereo not drawn) [c31], the “Test B … percent mortality rating” value in data set [1] was “A (50-100)”. Further, in data set [2], the “Test A: Bioassay on BAW, percent mortality rating” value is given as “A (50-100)”. Also, the “Test C: Bioassay” value in data set [3] is on record as “B (More than 0 - Less than 80)”.
On to `Cc1cc2cc(NC(=O)c3cc(NC(=O)C4C(c5cc(Cl)cc(Cl)c5)C4(Cl)Cl)ccc3Cl)ccc2[nH]1` (stereo not drawn) [c32], for which the “Test B … percent mortality rating” value in data set [1] is listed as “A (50-100)”. Besides, the “Test A: Bioassay on BAW, percent mortality rating” value in data set [2] is reported as “A (50-100)”. Further, the “Test C: Bioassay” value in data set [3] is listed as “A (80-100)”.
As to `Cc1nc2cc(NC(=O)c3cc(NC(=O)C4C(c5cc(Cl)cc(Cl)c5)C4(Cl)Cl)ccc3Cl)ccc2s1` (stereo not drawn) [c33], the “Test B … percent mortality rating” value in data set [1] is listed as “A (50-100)”. The “Test A: Bioassay on BAW, percent mortality rating” value in data set [2] is on record as “A (50-100)”. Moreover, in data set [3], the “Test C: Bioassay” value is “A (80-100)”.
In the case of `O=C(Nc1ccc2[nH]cnc2c1)c1cc(NC(=O)C2C(c3cc(Cl)cc(Cl)c3)C2(Cl)Cl)ccc1Cl` (stereo not drawn) [c34], in data set [1], the “Test B … percent mortality rating” value is listed as “A (50-100)”. Also, the “Test A: Bioassay on BAW, percent mortality rating” value in data set [2] is given as “A (50-100)”. The “Test C: Bioassay” value in data set [3] was “B (More than 0 - Less than 80)”.
`CNc1ccc(NC(=O)c2cc(NC(=O)C3C(c4cc(Cl)cc(Cl)c4)C3(Cl)Cl)ccc2Cl)c(C)c1` (stereo not drawn) [c35]: the “Test B … percent mortality rating” value in data set [1] was “A (50-100)”. Also, the “Test A: Bioassay on BAW, percent mortality rating” value in data set [2] was “A (50-100)”. The “Test C: Bioassay” value in data set [3] is reported as “A (80-100)”.
In the case of `Cn1ccc2cc(NC(=O)c3cc(NC(=O)C4C(c5cc(Cl)cc(Cl)c5)C4(Cl)Cl)ccc3Cl)ccc21` (stereo not drawn) [c36], the “Test B … percent mortality rating” value in data set [1] is reported as “A (50-100)”. The “Test A: Bioassay on BAW, percent mortality rating” value in data set [2] was “A (50-100)”. The “Test C: Bioassay” value in data set [3] is “A (80-100)”.
